Legend:
3T3-L1 adipocytes [1] = assay: glycerol release in 3T3-L1 adipocytes; type: cell-based
Description: (§1) CNA was synthesized from NA (purchased from Nu-Chek Corp., Elysian, Minn.), using the method described in Park, Y. et al., Lipids 34 (1999) 235-241 for producing CLA from linoleic acid; the CNA product synthesized contained 97.3% CNA (c10, t12, 33.4%; t11, c13, 32.9%; t10, t12/t11, t13, 23.4%; other isomers, 7.6%) with the remainder as unreacted NA. CLA was synthesized as described by Park, et al., supra; the CLA product synthesized contained 97.8% CLA (c9, t11/t9, c11, 45.7%; t10, c12, 47.6%; t9, t11/t10, t12, 1.7%; others, 2.8%) with the remainder as unreacted linoleic acid.
(§2) Cultured cells were treated with fatty acid-albumin complexes for 2 days, beginning at day 6 post-differentiation. Data were analyzed as log value with a two-way ANOVA using fatty acid (as treatments) and experiment. If the interaction between treatment and experiment was significant, this interaction was used as the error term. Additional experimental details were as described in Park, et al., supra.
(§3) Treatment values indicate the concentration of test materials (μM); all treatment groups included albumin at 100 μM. Reported values are mean±S.E. (n=8, collected from two independent experiments). […] CNA inhibited LPL activity in cultured 3T3-L1 adipocytes (FIG. 1A). In addition, CNA enhanced glycerol release (FIG. 1B) and reduced intracellular triacylglycerol (FIG. 1C) and glycerol (FIG. 1D) in the same cells. […]

3T3-L1 adipocytes [2] = assay: cellular triacylglycerol in 3T3-L1 adipocytes; type: cell-based
Description: as §1, §2, §3

lipoprotein lipase (LPL) = target: T1, lipoprotein lipase (LPL) (Mus musculus, UniProt P11152); assay: heparin-releasable LPL activity in 3T3-L1 adipocytes; type: cell-based
T1 construct: endogenous in cells; host or cells: 3T3-L1 adipocytes
T1 sequence (P11152 28-474): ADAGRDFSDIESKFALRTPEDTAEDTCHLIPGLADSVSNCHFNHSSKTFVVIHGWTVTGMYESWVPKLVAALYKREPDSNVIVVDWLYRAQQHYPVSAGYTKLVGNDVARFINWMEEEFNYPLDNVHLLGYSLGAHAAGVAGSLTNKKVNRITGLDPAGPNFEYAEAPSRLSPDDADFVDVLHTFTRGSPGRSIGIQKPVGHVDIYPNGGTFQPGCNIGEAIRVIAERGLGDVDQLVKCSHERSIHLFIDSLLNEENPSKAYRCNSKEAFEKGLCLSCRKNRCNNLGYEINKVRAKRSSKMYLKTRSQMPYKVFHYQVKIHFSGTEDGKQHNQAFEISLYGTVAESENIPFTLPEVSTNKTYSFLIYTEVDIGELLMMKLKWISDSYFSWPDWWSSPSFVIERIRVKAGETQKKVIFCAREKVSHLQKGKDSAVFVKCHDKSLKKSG
Description: as §1, §2, §3

3T3-L1 adipocytes [3] = assay: cellular glycerol in 3T3-L1 adipocytes; type: cell-based
Description: as §1, §2, §3

[4] = Effects of CNA and CLA on body composition (diet feeding); type: in vivo, mice; settings: 0.3% in diet, 2 weeks; for Body weight gain per animal: female ICR mice
Description: Female ICR mice (4-week-old) and semi-purified diets (TD94060, 99% basal mix) were purchased from Harlan Sprague Dawley (Madison, Wis.) and Harlan Teklad (Madison, Wis.), respectively. CLA was obtained from Natural Lipids Ltd AS, Hovdebygda, Norway; its composition was 88.7% CLA (c9, t11/t9, c11, 41.9%; t10, c12, 43.5%; t9, t11/10, t12, 1.5%; others, 1.8%) with the remainder as oleic acid, 5.6%; palmitic acid, 1.4%; and linoleic acid, 0.5%. CNA was kindly provided by the US Food and Drug Administration; it was 98.6% CNA (c10, t12, 42.3%; t11, c13, 48.0%; t10, t12/t11, t13, 5.1%; others, 3.2%) with the remainder as unreacted NA. CLA or CNA was added to diets at the expense of corn oil to maintain 5.5% fat. Diet was stored at −20° C. until use. Mice were housed individually in a windowless room with a 12-h light-dark cycle in strict accordance to guidelines established by the Research Animal Resources Center of University of Wisconsin-Madison. Diet and water, available ad libitum, were freshly provided three times per week.
After a 5 day adaptation period, mice were randomly separated into 3 groups and fed control diet, diet supplemented with 0.3% CLA, or diet supplemented with 0.3% CNA for 2 weeks. 0.3% of diet CLA is a sub-optimal dose for CLA's effects on body composition.
Results are mean±S.E. (n=6).

ovine cyclooxygenase-1 = target: T2, ovine cyclooxygenase-1 (Ovis aries, UniProt P05979); assay: ovine COX-1 inhibition (total prostanoids by ELISA); type: biochemical; settings: pure ovine COX-1, 5 min co-incubation, 37° C. (FIG. 5)
T2 sequence (P05979 25-600): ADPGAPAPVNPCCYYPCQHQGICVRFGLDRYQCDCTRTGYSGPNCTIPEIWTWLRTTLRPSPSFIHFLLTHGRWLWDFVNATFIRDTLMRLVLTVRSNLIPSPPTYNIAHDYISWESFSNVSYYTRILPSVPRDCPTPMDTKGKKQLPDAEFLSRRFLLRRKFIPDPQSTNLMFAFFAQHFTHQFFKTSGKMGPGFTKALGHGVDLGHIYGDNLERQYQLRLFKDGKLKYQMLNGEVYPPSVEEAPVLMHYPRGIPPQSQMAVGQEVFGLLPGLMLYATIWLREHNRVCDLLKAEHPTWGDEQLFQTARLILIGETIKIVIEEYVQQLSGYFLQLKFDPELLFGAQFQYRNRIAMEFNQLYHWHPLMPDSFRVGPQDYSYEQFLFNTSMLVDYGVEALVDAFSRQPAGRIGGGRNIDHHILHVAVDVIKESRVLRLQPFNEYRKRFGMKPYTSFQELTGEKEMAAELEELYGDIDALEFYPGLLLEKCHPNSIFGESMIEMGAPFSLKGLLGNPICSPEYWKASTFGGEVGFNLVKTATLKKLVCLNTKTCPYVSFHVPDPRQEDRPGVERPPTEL
Experimental: (§4) Determination of thromboxane B2 level by ELISA: After the whole blood platelet aggregation, the collagen-stimulated blood was centrifuged for plasma and stored at −80° C. The plasma thromboxane level was determined by ELISA according to the manufacturer's instructions. Inhibitory effects on ovine COX-1 and COX-2: COX-1 or COX-2, heme and reaction buffer were pre-incubated under 37° C. CNA or DMSO (control) was added to the system and co-incubated for 5 minutes. Arachidonic acid was added and the reaction was maintained at 37° C. for 2 minutes. The catalysis reaction was terminated by adding HCL. Total prostanoids were measured by ELISA according to manufacturer's instructions.

[5] = system: collagen-induced whole blood platelet aggregation; assay: collagen-induced whole blood platelet aggregation; type: cell-based, guinea pigs; settings: guinea pig heparinized whole blood, collagen 4 μg/ml, 2 min preincubation (FIG. 2)
Experimental: (§5) Female guinea pigs and diets were purchased from Harlan Teklad (Madison, Wis). Whole Blood Aggregometer, collagen and ADP were purchased from Chrono-log Corp. (Havertown, Pa.). All ELISA kits were purchased from Cayman Chemical (Ann Arbor, Mich.).
(§6) Whole blood platelet aggregation: Guinea Pigs were anesthetized with a combination of ketamine (35 mg/kg) and xylazine (10 mg/kg) by subcutaneous administration. Heparinized blood (20 unit/ml) was obtained by cardiac puncture. Within 5-10 minutes, the blood (1.0 ml) was preheated at 37° C. and then incubated with free fatty acid or DMSO (control) for 2 minutes. Collagen (4 μg/ml) or ADP (10 μM) was next added to the blood to start the platelet aggregation process. Platelet aggregation was measured using an Aggregometer.

[6] = system: ADP-induced whole blood platelet aggregation; assay: ADP-induced whole blood platelet aggregation; type: cell-based, guinea pigs; settings: guinea pig heparinized whole blood, ADP 10 μM, 2 min preincubation (FIG. 3)
Experimental: as §5, §6

thromboxane B2 = thromboxane B2 level in collagen-stimulated blood by ELISA; type: cell-based, guinea pigs; settings: collagen-stimulated guinea pig blood, plasma ELISA (FIG. 4)
Experimental: as §5, §4

ovine cyclooxygenase-2 = target: T3, ovine cyclooxygenase-2 (Ovis aries, UniProt P79208); assay: ovine COX-2 inhibition (total prostanoids by ELISA); type: biochemical; settings: pure ovine COX-2, 5 min co-incubation, 37° C. (FIG. 6)
T3 sequence (P79208 17-603): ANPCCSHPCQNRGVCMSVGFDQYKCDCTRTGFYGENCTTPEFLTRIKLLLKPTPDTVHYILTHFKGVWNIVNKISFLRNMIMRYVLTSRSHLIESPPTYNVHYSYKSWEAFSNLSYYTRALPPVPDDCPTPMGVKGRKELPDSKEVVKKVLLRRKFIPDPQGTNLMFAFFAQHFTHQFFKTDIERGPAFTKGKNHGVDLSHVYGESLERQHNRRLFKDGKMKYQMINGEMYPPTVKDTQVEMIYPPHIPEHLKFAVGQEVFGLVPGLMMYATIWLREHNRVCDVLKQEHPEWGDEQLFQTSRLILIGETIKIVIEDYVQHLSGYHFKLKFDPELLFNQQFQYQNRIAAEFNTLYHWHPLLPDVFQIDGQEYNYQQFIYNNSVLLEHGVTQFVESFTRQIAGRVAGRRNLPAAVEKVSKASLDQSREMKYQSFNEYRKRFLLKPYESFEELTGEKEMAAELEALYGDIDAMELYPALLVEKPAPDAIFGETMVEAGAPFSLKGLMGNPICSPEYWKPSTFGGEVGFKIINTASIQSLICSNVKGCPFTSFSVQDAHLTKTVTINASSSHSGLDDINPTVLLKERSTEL
Experimental: as §4

[7] = system: lipopolysaccharide-stimulated macrophages; assay: PGE2 released from LPS-stimulated macrophages; type: cell-based; settings: macrophages incubated 24 hours, then 100 ng/ml LPS 8 hours; about 3000 pg/ml without CNA (FIG. 7)
Experimental: As a further indication of the ability of CNA to inhibit COX enzymes, FIG. 7 depicts the inhibition of PGE2 released from stimulated macrophages in the presence of varying amounts of CNA. Confluent macrophages were incubated with CNA or linoleic acid (LA; control) at the concentrations shown for 24 hours in 0.5% fetal bovine serum then were stimulated with 100 ng/ml lipopolysaccharide (LPS) for 8 hours. The level of PGE2 in the medium was determined by ELISA assay.

| LPL activity (lipoprotein lipase (LPL); 3T3-L1 adipocytes, at 50 or 100 μM) | COX-1 activity (ovine cyclooxygenase-1) | LPL activity (lipoprotein lipase (LPL); cultured 3T3-L1 adipocytes, fatty acid-albumin complexes 2 days, albumin 100 μM (FIG. 1A)) | COX-2 activity (ovine cyclooxygenase-2) | Molecule | glycerol release (3T3-L1 adipocytes [1]; at 50 or 100 μM) | intracellular triacylglycerol (3T3-L1 adipocytes [2]; at 50 or 100 μM) | intracellular glycerol (3T3-L1 adipocytes [3]; at 50 or 100 μM) | Body weight gain per animal [4] | glycerol release (3T3-L1 adipocytes [1]; 2 days, albumin 100 μM (FIG. 1B)) | collagen-stimulated platelet aggregation [5] | intracellular triacylglycerol (3T3-L1 adipocytes [2]; 2 days, albumin 100 μM (FIG. 1C)) | amount of whole body water, protein and ash ([4]; mice, in words) | body fat mass gain ([4]; mice, in words) | ADP-stimulated platelet aggregation [6] | thromboxane B2 level (thromboxane B2) | intracellular glycerol (3T3-L1 adipocytes [3]; 2 days, albumin 100 μM (FIG. 1D)) | level of PGE2 in the medium [7] |
| --- | --- | --- | --- | --- | --- | --- | --- | --- | --- | --- | --- | --- | --- | --- | --- | --- | --- |
| ineffective | – | – | – | CCCCC/C=C\C/C=C\CCCCCCCCC(=O)O [NA, c10, c13 nonadecadienoic acid, reference compound] | ineffective | ineffective | ineffective | – | – | – | – | – | – | – | – | – | – |
| – | – | – | – | Conjugated linoleic acid [CLA, reference compound] | – | – | – | 1.3 g | – | – | – | – | – | – | – | – | – |
| – | inhibited | inhibited | inhibited | conjugated nonadecadienoic acid [CNA] | – | – | – | 0.2 g | enhanced | inhibited | reduced | enhanced | reduced | inhibited | reduced | reduced | less than 1000 pg/ml |
